Article PMC9112895, “Selective Inhibition of Plasmodium falciparum ATPase 6 by Artemisinins and Identification of New Classes of Inhibitors after Expression in Yeast” (Antimicrobial Agents and Chemotherapy, 2022)

Biological target: T1, A623E/S769N PfATP6 (Plasmodium falciparum, UniProt Q08853, A623E/S769N)
T1 construct: expressed in transfected cells; host or cells: Saccharomyces cerevisiae K667-derived strain
T1 sequence (Q08853 1-1228 A623E/S769N): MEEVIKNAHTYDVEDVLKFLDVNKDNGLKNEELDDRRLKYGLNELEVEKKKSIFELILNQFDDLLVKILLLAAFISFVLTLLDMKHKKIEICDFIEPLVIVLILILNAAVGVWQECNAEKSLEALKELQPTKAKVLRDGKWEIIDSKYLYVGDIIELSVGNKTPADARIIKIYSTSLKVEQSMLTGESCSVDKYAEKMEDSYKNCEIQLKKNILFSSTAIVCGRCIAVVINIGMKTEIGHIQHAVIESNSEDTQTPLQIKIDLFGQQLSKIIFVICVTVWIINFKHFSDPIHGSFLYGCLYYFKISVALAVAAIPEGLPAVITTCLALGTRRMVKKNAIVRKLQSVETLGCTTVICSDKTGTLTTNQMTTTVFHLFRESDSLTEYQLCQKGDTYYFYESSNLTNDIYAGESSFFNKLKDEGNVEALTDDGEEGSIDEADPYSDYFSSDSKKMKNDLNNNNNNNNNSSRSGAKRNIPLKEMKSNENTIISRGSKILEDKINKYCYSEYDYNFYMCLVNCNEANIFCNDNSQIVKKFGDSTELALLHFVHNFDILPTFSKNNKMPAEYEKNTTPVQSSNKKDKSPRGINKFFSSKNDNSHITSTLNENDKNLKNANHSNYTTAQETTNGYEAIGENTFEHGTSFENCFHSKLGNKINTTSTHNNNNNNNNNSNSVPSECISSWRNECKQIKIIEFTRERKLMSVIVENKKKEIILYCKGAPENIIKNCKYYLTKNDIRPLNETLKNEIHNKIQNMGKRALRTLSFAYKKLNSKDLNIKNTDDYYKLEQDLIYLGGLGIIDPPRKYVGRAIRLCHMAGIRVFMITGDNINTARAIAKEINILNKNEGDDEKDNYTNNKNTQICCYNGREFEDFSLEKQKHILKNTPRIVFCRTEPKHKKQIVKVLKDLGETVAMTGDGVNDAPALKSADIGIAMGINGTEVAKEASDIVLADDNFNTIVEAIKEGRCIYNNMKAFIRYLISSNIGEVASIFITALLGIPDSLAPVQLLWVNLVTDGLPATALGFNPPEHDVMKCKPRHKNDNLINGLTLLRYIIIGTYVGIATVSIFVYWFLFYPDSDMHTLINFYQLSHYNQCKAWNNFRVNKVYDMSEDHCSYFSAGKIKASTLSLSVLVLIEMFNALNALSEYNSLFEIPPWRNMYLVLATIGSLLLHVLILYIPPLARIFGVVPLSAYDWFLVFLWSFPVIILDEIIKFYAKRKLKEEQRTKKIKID
Assay: Yeast whole-cell assay, PfATP6 A623E/S769N double mutant
Format: cell-based
Conditions: read-out: IC50 (mean ± SD)
Experimental: Yeast transformations were performed using the method described by Gietz and Schiestl ([48]), and transformants were selected by an uracil auxotrophic marker. Transformations were confirmed by colony PCR. Both K667 and K667Δpdr5::HIS were transformed with the following plasmids: pUGpd plasmid as a vector-only control (derived from pRS316 [49]); br434 plasmid (derived from pRS316 [50]) containing the SERCA1a coding region from rabbit skeletal fast-twitch muscle (pbr434-SERCA1a); and pUGpd containing the yeast-optimized coding region of PfATP6 from Plasmodium falciparum (pUGpd-PfATP6). Site-directed mutagenesis was performed on the SERCA1a coding region to produce the mutation E255L in the protein. Mutations were also introduced into the PfATP6 coding region to produce mutations L263E, A623E, and S769N and the double mutation A623E/S769N ([13]).
The screening assay used here was developed from the protocol used by Pulcini et al. ([13]). […] The optimal calcium concentration was periodically monitored and, if necessary, adjusted using a calcium concentration range of 10 to 30 mM. […] The yeast growth was estimated from the absorbance at 620 nm in a Tecan plate reader. […] The data collected were analyzed using GraphPad Prism v9.0 (GraphPad software, San Diego, CA, U.S.A).

For `CC(=O)C1=C(O)[C@@H]2[C@H]3c4c[nH]c5cccc(c45)C[C@H]3C(C)(C)N2C1=O` [CPA, cyclopiazonic acid], the IC50 was 6.61 µM.
